Measurements published in PMC9920246, “Entinostat-Bortezomib Hybrids against Multiple Myeloma” (Molecules, 2023).
Read-outs that look alike come from different tables or passages of the source.

Key:
[1] = test system: 3D co-culture spheroids containing RPMI 8226 cells and mesenchymal stem cells (MSC) in a 5:1 ratio; assay: Antiproliferative assay in 3D co-culture spheroids (CellTiter-Glo 3D, 48 h); assay type: cell-based, human; details: RPMI 8226 + MSC 5:1 spheroids, mean ± SD, n = 3
Description: The multiple myeloma human plasma cells RPMI 8226 were purchased from American Type Culture Collection (ATCC, Manassas, VA, USA) and cultured in RPMI 1640 medium (Gibco, Paisley, UK) supplemented with 50 µg/mL streptomycin sulfate, 50 U/mL penicillin G sodium salt (Gibco, Grand Island, NY, USA) and 10% fetal bovine serum (FBS) (Biowest, Nuaillé, France). […] Human MSC from the bone marrow were purchased from PromoCell and were cultured in Mesenchymal Stem Cell Growth Medium 2 (PromoCell, Heidelberg, Germany) supplemented with 100 μg/mL streptomycin sulfate and 100 U/mL penicillin G sodium salt.
RPMI 8226 cells and MSC were mixed in a 5:1 ratio. The cell mixture was centrifuged, and medium containing 20% collagen I (Gibco) adjusted to pH 7 was added to the cell pellet. Five μL drops were plated in each well of an ice-cold 96-well ultra-low attachment U-bottom plate (Corning, Kennebunk, MA, USA) and the plate was incubated for 30 min at 37 °C and 5% CO2 atmosphere. After the incubation, 200 μL of RPMI 1640 medium (Gibco) supplemented with 50 µg/mL streptomycin sulfate, 50 U/mL penicillin G sodium salt (Gibco) and 10% FBS (Biowest) was added to each well. The 3D spheroids were formed after 48 h.
RPMI 8226 and RPMI 8226/BTZ100 cells were seeded in 96-well plates (Costar, Kennebunk, MA, USA) at a density of 15,000 cells per well and directly treated for 72 h with the various compounds using increasing concentrations (0.31–2000 nM). […] Following the treatment, 100 μL of medium was carefully removed from each well and collagenase (1.5 μL of a 100 mg/mL solution, Sigma) was added. The plate was shaken at 37 °C for 10 min at 350 rpm. Then, 100 μL of CellTiter-Glo 3D reagent (Promega, Fitchburg, WI, USA) was added to each well. The plate was incubated for 5 min at 37 °C under agitation at 250 rpm, followed by 25 min at room temperature without agitation. Finally, the luminescence was measured using a Cytation 3 plate reader (BioTek). The percentage of cell proliferation and calculation of the IC50 value were determined as previously described. Each compound was tested in triplicate in three independent experiments.

RPMI 8226/BTZ100 cells = assay: cells; assay type: cell-based, human; details: for IC50: read-out: IC50 Value Antiproliferative Activity RPMI 8226/BTZ100; for Increased resistance (RPMI 8226/BTZ100 vs. RPMI 8226): ratio of IC50 in resistant vs. parental cells
RPMI 8226 cells = assay: Antiproliferative assay (XTT, 72 h); assay type: cell-based, human; details: for IC50: RPMI 8226 cells, 72 h, XTT, mean ± SD, n = 3; for Fold less active than compound 3 in RPMI 8226 cells: compared to compound 3
26S proteasome = molecular target: T1, 26S proteasome (Homo sapiens, UniProt P28074); assay: Proteasome inhibitory activity (Suc-LLVY-amc) in RPMI 8226 cell lysate; assay type: biochemical
T1 sequence (P28074 60-263): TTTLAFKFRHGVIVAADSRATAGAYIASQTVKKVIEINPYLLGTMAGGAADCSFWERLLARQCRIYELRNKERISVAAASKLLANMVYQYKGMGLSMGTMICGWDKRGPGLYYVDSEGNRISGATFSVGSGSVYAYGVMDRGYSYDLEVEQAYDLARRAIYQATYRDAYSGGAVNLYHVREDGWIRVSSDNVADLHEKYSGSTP
Description: RPMI 8226 cells (1 × 10^6 cells/mL) were collected, centrifuged, and washed twice with cold PBS (Gibco). The supernatant was discarded, and 200 μL of ice-cold lysis buffer (NP40 cell lysis buffer (Invitrogen, Eugene, OR, USA), supplemented with 1 mM PMSF (Sigma) and protease inhibitor cocktail (Sigma), was added to the pellet. Cells were kept on ice for 30 min and vortexed every 10 min. Samples were then centrifuged at 4 °C for 10 min at 16,000× g. Supernatant containing the proteins was collected. Protein quantification was performed using the Coomassie (Bradford) Protein Assay Kit (ThermoFisher, Waltham, MA, USA) following the manufacturer instructions. In each well of a 96-well black plate (ThermoFisher), 10 µg of proteins were mixed with assay buffer (50 mM Tris-HCl, pH 7.5, 40 mM KCl, 5 mM MgCl2, 0.5 mM ATP, 1 mM DTT, 0.5 mg/mL BSA) in 180 µL total volume. […] The plate was then incubated for 30 min at 37 °C. After incubation, the reaction was started by adding the fluorometric peptide substrate Suc-LLVY-amc (Bio-Techne, Minneapolis, MN, USA) at a final concentration of 100 µM, except for the blank wells. Following 1 h incubation at 37 °C in the dark, the fluorescence signal was red (excitation: 380 nm, emission: 440–460 nm) using a Cytation 3 plate reader (BioTek). The percentage of 26S proteasome activity was measured by comparing the fluorescence of the sample treated with the vehicle control wells and multiplied by 100. The IC50 value was calculated as mentioned above, and each compound was tested in triplicate in three independent experiments.

HDAC = HDAC inhibitory activity in RPMI 8226 cells (MAL substrate, UHPLC-MS); assay type: cell-based, human; details: 8 h; for Inhibition of HDAC activity: 10 µM
Description: RPMI 8226 cells were seeded in 96-well plates (Costar) at a density of 15,000 cells per well in 25 µL of medium containing the HDAC substrate N-(4-methyl-7-aminocoumarinyl)-Nα-(t-butoxycarbonyl)-Nω-acetyllysineamide (21 µM, MAL, Sigma). The cells were directly treated with the compounds at 10 µM or with Ent (0.4–250 µM) for 8 h to obtain a final volume of 50 µL. […] Following the incubation, the reaction was stopped by adding 10 µL of 6X RIPA buffer, supplemented with protease inhibitor (Sigma). Then, 160 µL of cold acetonitrile were added and the plate was placed for 10 min at −80 °C. The plate was centrifuged at 5000× g for 10 min at 4 °C, and the supernatant was transferred into a UHPLC-adapted 96-well plate (Nunc 96-well plate conical bottom, ThermoFisher) and sealed. The substrate (MAL) and its deacetylated product (dMAL) were measured using a UHPLC-MS method as previously described. The percentage of HDAC inhibition is given by 100 − [(tested sample × 100/control sample)], and the dose-response curve of Ent was established.

[2] = RPMI 8226 cells resistant to BTZ, 72 h, XTT, mean ± SD, n = 3
[3] = read-out: IC50 Value PI Activity; 26S proteasome in RPMI 8226 cell lysate, 30 min preincubation, Suc-LLVY-amc 100 µM, mean ± SD, n = 3
[4] = 26S proteasome in RPMI 8226 cell lysate, 30 min preincubation, Suc-LLVY-amc 100 µM, mean ± SD, n = 3; read-out: IC50 Value PI Activity

Structure (SMILES)	IC50 [1]	IC50 (RPMI 8226/BTZ100 cells; [2])	IC50 (RPMI 8226 cells)	IC50 (26S proteasome; [3])	IC50 (RPMI 8226 cells; Homo sapiens)	IC50 (26S proteasome; [4])	IC50 ([1]; Homo sapiens)	IC50 (RPMI 8226/BTZ100 cells; Homo sapiens, RPMI-8226, 72 h)	Inhibition of HDAC activity (HDAC)	further results
CC(C)C[C@H](NC(=O)[C@@H](Cc1ccc(N(CCCl)CCCl)cc1)NC(=O)c1cnccn1)B1OC2CC3CC(C3(C)C)[C@]2(C)O1 (stereo partly drawn) [Compound 8, N-((2R)-3-(4-(bis(2-chloroethyl)amino)phenyl)-1-(((1R)-3-methyl-1-((3aS)-3a,5,5-trimethylhexahydro-4,6-methanobenzo[d][1,3,2]dioxaborol-2-yl)butyl)amino)-1-oxopropan-2-yl)pyrazine-2-carboxamide]	0.03 ± 0.0016 µM	1.01 ± 0.0886 µM	0.0196 ± 0.0004 µM	0.0121 ± 0.0011 µM	–	–	–	–	–	–
CC(C)C[C@H](NC(=O)[C@@H](Cc1ccccc1)NC(=O)Cc1ccc(C(=O)Nc2ccccc2N)cc1)B1OC2CC3CC(C3(C)C)[C@@]2(C)O1 (stereo partly drawn) [Compound 6, N-(2-aminophenyl)-4-(2-(((2R)-1-(((1R)-3-methyl-1-((3aR)-3a,5,5-trimethylhexahydro-4,6-methanobenzo[d][1,3,2]dioxaborol-2-yl)butyl)amino)-1-oxo-3-phenylpropan-2-yl)amino)-2-oxoethyl)benzamide]	–	–	–	–	0.337 ± 0.0494 µM	> 0.05 µM	–	–	–	–
CC(C)C[C@H](NC(=O)[C@@H](Cc1ccc(N(CCCl)CCCl)cc1)NC(=O)c1cnc(Cl)cn1)B1OC2CC3CC(C3(C)C)[C@]2(C)O1 (stereo partly drawn) [Compound 9, N-((2R)-3-(4-(bis(2-chloroethyl)amino)phenyl)-1-(((1R)-3-methyl-1-((3aS)-3a,5,5-trimethylhexahydro-4,6-methanobenzo[d][1,3,2]dioxaborol-2-yl)butyl)amino)-1-oxopropan-2-yl)-5-chloropyrazine-2-carboxamide]	0.188 ± 0.0425 µM	1.03 ± 0.205 µM	0.0376 ± 0.0011 µM	> 0.05 µM	–	–	–	–	–	–
Nc1ccccc1NC(=O)c1ccc(CNC(=O)OCc2cccnc2)cc1 [Ent, entinostat]	–	–	–	–	0.329 ± 0.0257 µM	–	0.349 ± 0.133 µM	0.562 ± 0.0517 µM	51%	IC50 (HDAC; 0.4–250 µM, read-out: HDAC inhibition IC50): 9.3 ± 0.7 µM
CC(C)C[C@H](NC(=O)[C@@H](Cc1ccccc1)NC(=O)c1ccc(C(=O)NCc2ccc(C(=O)Nc3ccccc3N)cc2)cc1)B1OC2CC3CC(C3(C)C)[C@@]2(C)O1 (stereo partly drawn) [Compound 4, N^1-(4-((2-aminophenyl)carbamoyl)benzyl)-N^4-((2R)-1-(((1R)-3-methyl-1-((3aR)-3a,5,5-trimethylhexahydro-4,6-methanobenzo[d][1,3,2]dioxaborol-2-yl)butyl)amino)-1-oxo-3-phenylpropan-2-yl)terephthalamide]	–	–	–	–	0.802 ± 0.0727 µM	> 0.05 µM	–	–	–	–
CC(C)C[C@H](NC(=O)[C@@H](Cc1ccccc1)NC(=O)c1ccc(C(=O)Nc2ccccc2N)cc1)B1OC2CC3CC(C3(C)C)[C@]2(C)O1 (stereo partly drawn) [Compound 2, N^1-(2-aminophenyl)-N^4-((2R)-1-(((1R)-3-methyl-1-((3aS)-3a,5,5-trimethylhexahydro-4,6-methanobenzo[d][1,3,2]dioxaborol-2-yl)butyl)amino)-1-oxo-3-phenylpropan-2-yl)terephthalamide]	–	–	–	–	0.0371 ± 0.0029 µM	0.0095 ± 0.0023 µM	0.0325 ± 0.0075 µM	0.112 ± 0.013 µM	50%	Increased resistance (RPMI 8226/BTZ100 vs. RPMI 8226) (RPMI 8226/BTZ100 cells): 3.0 fold; Fold less active than compound 3 in RPMI 8226 cells (RPMI 8226 cells): ca. 4 times
CC(C)C[C@H](NC(=O)[C@@H](Cc1ccc(N(CCCl)CCCl)cc1)NC(=O)c1cnc(C(=O)Nc2ccccc2N)cn1)B1OC2CC3CC(C3(C)C)[C@]2(C)O1 (stereo partly drawn) [Compound 11, N^2-(2-aminophenyl)-N^5-((2R)-3-(4-(bis(2-chloroethyl)amino)phenyl)-1-(((1R)-3-methyl-1-((3aS)-3a,5,5-trimethylhexahydro-4,6-methanobenzo[d][1,3,2]dioxaborol-2-yl)butyl)amino)-1-oxopropan-2-yl)pyrazine-2,5-dicarboxamide]	0.0399 ± 0.0121 µM	0.462 ± 0.107 µM	0.0229 ± 0.0026 µM	> 0.05 µM	–	–	–	–	25%	Fold less active than compound 3 in RPMI 8226 cells (RPMI 8226 cells): ~2.4 times
CC(C)C[C@H](NC(=O)[C@@H](Cc1ccccc1)NC(=O)c1cnc(C(=O)NCc2ccc(C(=O)Nc3ccccc3N)cc2)cn1)B1OC2CC3CC(C3(C)C)[C@@]2(C)O1 (stereo partly drawn) [Compound 5, N^2-(4-((2-aminophenyl)carbamoyl)benzyl)-N^5-((2R)-1-(((1R)-3-methyl-1-((3aR)-3a,5,5-trimethylhexahydro-4,6-methanobenzo[d][1,3,2]dioxaborol-2-yl)butyl)amino)-1-oxo-3-phenylpropan-2-yl)pyrazine-2,5-dicarboxamide]	–	–	–	–	0.0252 ± 0.0022 µM	0.0148 ± 0.0025 µM	0.0651 ± 0.0141 µM	0.203 ± 0.0361 µM	–	Increased resistance (RPMI 8226/BTZ100 vs. RPMI 8226) (RPMI 8226/BTZ100 cells): 8.0 fold
CC(C)CC(NC(=O)C(Cc1ccccc1)NC(=O)CCC(=O)NCc1ccc(C(=O)Nc2ccccc2N)cc1)B1OC2CC3CC(C3(C)C)C2(C)O1 [Compound 1, N^1-(4-((2-aminophenyl)carbamoyl)benzyl)-N^4-((2R)-1-(((1R)-3-methyl-1-((3aR)-3a,5,5-trimethylhexahydro-4,6-methanobenzo[d][1,3,2]dioxaborol-2-yl)butyl)amino)-1-oxo-3-phenylpropan-2-yl)succinimide]	–	–	–	–	0.678 ± 0.0425 µM	0.0103 ± 0.0027 µM	–	–	–	–
CC(C)C[C@H](NC(=O)c1cnc(C(=O)Nc2ccccc2N)cn1)B1OC2CC3CC(C3(C)C)[C@]2(C)O1 (stereo partly drawn) [Compound 10, N^2-(2-aminophenyl)-N^5-((1R)-3-methyl-1-((3aS)-3a,5,5-trimethylhexahydro-4,6-methanobenzo[d][1,3,2]dioxaborol-2-yl)butyl)pyrazine-2,5-dicarboxamide]	–	–	–	–	> 2 µM	> 0.05 µM	–	–	–	–
